Legend:
[1] = test system: MDA-MB-231 human breast cancer cells; assay: MDA-MB-231 breast cancer model in NSG mice (BLI); type: in vivo; settings: vs AbA33, p>0.05
Protocol: MDA-MB-231: 5-week old NOD/SCiD/gamma (NSG) immunocompromised mice were subcutaneously (s.c) administered two 30 mg/kg doses of anti-Grem1 antibody UCB6114 or IgG control, AbA33, the week prior to tumour cell inoculation. 1×10^5 luciferase expressing MDA-MB-231 human breast cancer cells were injected systemically via the CA.
Treatment continued twice weekly for the duration of the study. At weekly intervals, mice were administered 150 mg/kg luciferin intraperitoneally (i.p) and imaged using the Xenogen IVIS Bioluminescence Imaging System, and tumour burden was quantitated using Living Image software. The study ended on day 13 and day 22 post-tumour cell injection for the PyMT-B01 and MDA-MB-231 models respectively, according to animal ethics requirements. Organs were dissected upon culling animals and BLI imaged ex vivo for analysis of tumour metastasis.

[2] = test system: PC-3 prostate cancer cells; assay: PC-3 prostate cancer model in NSG mice (BLI); type: in vivo, human; settings: vs AbA33
Protocol: The PC-3 human prostate cancer cell line was obtained from ATCC (Manassas, VA, USA). The cell line expresses luciferase produced by retroviral expression of the SFG-NES-TGL vector (Ponomarev, V., et al. 2004). Cancer cells were cultured in RPMI1640 (Life Technologies, Australia) supplemented with 10% foetal bovine serum (FBS, Life Technologies, Australia), 100 IU/mL penicillin (Life Technologies, Australia), 100 μg/mL streptomycin (Life Technologies, Australia) and 25 mM HEPES (Life Technologies, Australia) at 37° C. in a 5% CO2 humidified atmosphere.
5-week old NOD.Cg-Prkd^scid Il2rg^tm1Wjl/SzJ (NSG) immunocompromised mice were subcutaneously (s.c) administered two 30 mg/kg doses of anti-Grem1 antibody (UCB6114) or IgG control, AbA33, the week prior to tumour cell inoculation. 5×10^5 luciferase expressing PC-3 […] prostate cancer cells were injected systemically via the caudal artery (CA).
Antibody treatment continued twice weekly for the duration of the study. A t weekly intervals, mice were administered 150 mg/kg luciferin intraperitoneally (i.p) and imaged using the Xenogen IVIS Bioluminescence Imaging System, and tumour burden was quantitated using Living Image software (PerkinElmer, MA, USA). At the end of each study, organs were dissected upon culling animals and BLI imaged ex vivo for analysis of tumour metastasis.

[3] = test system: MDA-MB-231-TXSA cells; assay: Proliferation assay of MDA-MB-231-TXSA cells in hypoxia (luciferase); type: cell-based, human; settings: rhGrem1 0-1000 ng/ml
Protocol: Luciferase expressing MDA-MB-231-TXSA cells were seeded in 96-well microtiter plates (1×10^4 cells/well). Cells were cultured either under normoxic or hypoxic conditions and allowed to adhere overnight. Cells were then serum starved for 6 hrs before treatment with increasing concentrations of rhGrem1 protein (0-1000 ng/ml). At 24 and 48 hr time points, luciferase expression was evaluated and used as a surrogate measure of cell number. Briefly, cells were washed in 1×PBS, and subsequently lysed in cell culture lysis buffer (Promega). Luciferase Assay Reagent (5 mM MgCl2, 30 mM HEPES, 150 μM ATP, […] Coenzyme A and 150 μg/mL D-luciferin (Biosynth AG, Staad, Switzerland)) was added to cell lysates, and luminescence was quantified immediately using a luminometer plate reader (Wallac 3000).

UCB6114: novel anti-Grem1 neutralising monoclonal antibody
Mean tumour burden (BLI) ([1]; day 22): lower | Mean tumour burden for lung metastasis (ex vivo BLI) [1]: reduction in mean tumour burden | Whole animal tumour burden (BLI) ([2]; 30 mg/kg s.c. twice weekly): significant reduction | Hindlimb tumour burden (ex vivo BLI) [2]: downward trend | Liver tumour burden (ex vivo BLI) [2]: significant reduction | Lung tumour burden (ex vivo BLI) [2]: downward trend

B1: rhGrem1: rhGrem1 protein used to stimulate breast cancer cells (protein)
chain: KKKGSQGAIPPPDKAQHNDSEQTQSPQQPGSRNRGRGQGRGTAMPGEEVLESSQEALHVTERKYLKRDWCKTQPLKQTIHEEGCNSRTIINRFCYGQCNSFYIPRHIRKEEGSFQSCSFCKPKKFTTMMVTLNCPELQPPTKKKRVTRVKQCRCISIDLD
Maximal increase in MDA-MB-231-TXSA proliferation, hypoxic compared to normoxic conditions ([3]; 24 hr): 1.5 fold | Maximal increase in MDA-MB-231-TXSA proliferation, hypoxic compared to normoxic conditions ([3]; 48 hr): 1.7 fold
